Experimental data published in ChEMBL document CHEMBL1153979, “Inhibition of carbonic anhydrase isozymes with benzene sulfonamides incorporating thio, sulfinyl and sulfonyl glycoside moieties” (Bioorg Med Chem Lett, 2009).

Target: Carbonic anhydrase 9 (Homo sapiens, UniProt Q16790)

Row | Structure (SMILES) | Ki
1 | CC(=O)OC[C@H]1O[C@@H](S(=O)(=O)Cc2cn(-c3ccc(S(N)(=O)=O)cc3)nn2)[C@H](OC(C)=O)[C@@H](OC(C)=O)[C@@H]1OC(C)=O | 9.3 nM
2 | NS(=O)(=O)c1ccc(-n2cc(CS(=O)(=O)[C@@H]3O[C@H](CO)[C@H](O)[C@H](O)[C@H]3O)nn2)cc1 | 8.1 nM
3 | NS(=O)(=O)c1ccc(-n2cc(C[S+]([O-])[C@@H]3O[C@H](CO)[C@H](O)[C@H](O)[C@H]3O)nn2)cc1 (stereo not given in full) | 8 nM
4 | NS(=O)(=O)c1ccc(-n2cc(CS[C@@H]3O[C@H](CO)[C@@H](O)[C@H](O)[C@H]3O)nn2)cc1 | 257 nM
5 | NS(=O)(=O)c1ccc(-n2cc(CS(=O)(=O)[C@@H]3O[C@H](CO)[C@@H](O)[C@H](O)[C@H]3O)nn2)cc1 | 9.5 nM
6 | NS(=O)(=O)c1ccc(-n2cc(CS[C@@H]3O[C@H](CO)[C@H](O)[C@H](O)[C@H]3O)nn2)cc1 | 6.1 nM
7 | CC(=O)OC[C@H]1O[C@@H](S(=O)(=O)Cc2cn(-c3ccc(S(N)(=O)=O)cc3)nn2)[C@H](OC(C)=O)[C@@H](OC(C)=O)[C@H]1OC(C)=O | 7.5 nM
8 | CC(=O)OC[C@H]1O[C@@H](SCc2cn(-c3ccc(S(N)(=O)=O)cc3)nn2)[C@H](OC(C)=O)[C@@H](OC(C)=O)[C@H]1OC(C)=O | 8.6 nM
9 | CC(=O)OC[C@H]1O[C@@H](SCc2cn(-c3ccc(S(N)(=O)=O)cc3)nn2)[C@H](OC(C)=O)[C@@H](OC(C)=O)[C@@H]1OC(C)=O | 8.6 nM
10 | NS(=O)(=O)c1ccc(-n2cc(C[S+]([O-])[C@@H]3O[C@H](CO)[C@@H](O)[C@H](O)[C@H]3O)nn2)cc1 (stereo not given in full) | 9.8 nM
